Source: patent US7101849B1 (The University of Queensland, priority 1998, dated 2006)

Target: N-type calcium channel (Rattus norvegicus, UniProt Q02294)
Type: binding

Sequence of N-type calcium channel (Q02294 whole entry, looked up): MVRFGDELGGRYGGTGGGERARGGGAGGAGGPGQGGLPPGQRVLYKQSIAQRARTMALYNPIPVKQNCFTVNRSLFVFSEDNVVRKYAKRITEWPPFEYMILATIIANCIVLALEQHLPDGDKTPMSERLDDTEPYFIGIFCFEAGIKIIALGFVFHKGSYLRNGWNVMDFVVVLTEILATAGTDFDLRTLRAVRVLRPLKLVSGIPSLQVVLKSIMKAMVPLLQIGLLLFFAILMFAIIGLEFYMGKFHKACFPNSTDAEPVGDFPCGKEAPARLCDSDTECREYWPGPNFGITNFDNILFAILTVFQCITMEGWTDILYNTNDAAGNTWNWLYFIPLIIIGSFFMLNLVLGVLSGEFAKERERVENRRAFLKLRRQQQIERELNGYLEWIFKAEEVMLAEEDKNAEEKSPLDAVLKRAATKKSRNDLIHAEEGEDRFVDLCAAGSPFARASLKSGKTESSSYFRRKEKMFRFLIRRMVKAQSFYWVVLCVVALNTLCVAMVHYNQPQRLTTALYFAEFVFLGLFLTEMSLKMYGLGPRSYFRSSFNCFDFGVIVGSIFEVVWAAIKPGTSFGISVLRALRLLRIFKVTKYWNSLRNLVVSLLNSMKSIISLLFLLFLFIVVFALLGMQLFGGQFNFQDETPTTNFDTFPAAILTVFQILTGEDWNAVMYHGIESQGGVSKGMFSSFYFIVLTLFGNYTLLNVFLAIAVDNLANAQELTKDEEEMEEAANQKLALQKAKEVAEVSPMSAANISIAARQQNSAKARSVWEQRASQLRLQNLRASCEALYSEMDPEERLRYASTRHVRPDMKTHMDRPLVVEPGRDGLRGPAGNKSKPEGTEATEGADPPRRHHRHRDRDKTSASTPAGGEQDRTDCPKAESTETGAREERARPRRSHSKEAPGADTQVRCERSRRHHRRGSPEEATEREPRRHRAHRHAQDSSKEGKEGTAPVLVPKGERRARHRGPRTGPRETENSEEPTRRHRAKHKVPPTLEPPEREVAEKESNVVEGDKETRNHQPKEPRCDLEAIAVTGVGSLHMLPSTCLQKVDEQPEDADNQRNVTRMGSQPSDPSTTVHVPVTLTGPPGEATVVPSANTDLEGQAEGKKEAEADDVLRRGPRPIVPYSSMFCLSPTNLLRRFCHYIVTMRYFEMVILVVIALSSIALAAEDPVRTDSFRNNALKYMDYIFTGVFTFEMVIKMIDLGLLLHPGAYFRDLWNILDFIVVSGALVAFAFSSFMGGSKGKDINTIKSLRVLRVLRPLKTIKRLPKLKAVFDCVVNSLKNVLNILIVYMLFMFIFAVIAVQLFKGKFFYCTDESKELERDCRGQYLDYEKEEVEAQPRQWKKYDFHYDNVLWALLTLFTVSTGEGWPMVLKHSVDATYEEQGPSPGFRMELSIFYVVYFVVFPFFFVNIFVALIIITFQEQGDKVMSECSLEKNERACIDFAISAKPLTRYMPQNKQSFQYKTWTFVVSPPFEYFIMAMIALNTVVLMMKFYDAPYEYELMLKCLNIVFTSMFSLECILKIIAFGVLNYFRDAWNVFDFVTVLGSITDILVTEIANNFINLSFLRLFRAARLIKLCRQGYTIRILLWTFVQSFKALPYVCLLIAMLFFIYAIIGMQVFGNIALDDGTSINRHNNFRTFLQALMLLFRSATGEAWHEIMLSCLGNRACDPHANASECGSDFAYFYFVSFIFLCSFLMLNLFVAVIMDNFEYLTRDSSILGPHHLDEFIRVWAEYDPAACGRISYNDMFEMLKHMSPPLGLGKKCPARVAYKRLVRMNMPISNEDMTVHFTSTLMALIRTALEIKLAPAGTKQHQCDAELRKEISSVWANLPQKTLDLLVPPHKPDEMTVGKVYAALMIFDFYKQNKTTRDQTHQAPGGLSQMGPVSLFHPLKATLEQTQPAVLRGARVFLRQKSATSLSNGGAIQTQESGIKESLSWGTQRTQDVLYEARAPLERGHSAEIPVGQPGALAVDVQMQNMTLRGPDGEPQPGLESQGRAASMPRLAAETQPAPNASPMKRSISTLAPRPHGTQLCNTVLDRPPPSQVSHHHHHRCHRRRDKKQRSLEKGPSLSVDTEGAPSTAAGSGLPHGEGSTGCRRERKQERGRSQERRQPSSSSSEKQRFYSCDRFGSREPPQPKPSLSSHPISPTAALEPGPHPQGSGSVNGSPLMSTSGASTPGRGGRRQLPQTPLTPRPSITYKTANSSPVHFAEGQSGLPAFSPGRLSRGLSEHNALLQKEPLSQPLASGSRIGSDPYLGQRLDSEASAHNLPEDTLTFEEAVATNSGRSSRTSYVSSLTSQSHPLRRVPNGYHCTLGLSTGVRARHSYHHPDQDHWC

In the case of “CKSKGAKCDRLMYDCCSGSCSGTVGRC [D^9R^10-CVID]”, the “potency for N-type calcium channel in receptor binding assays” value is reported as “high potency” and the “selectivity for N-type calcium channel over P/Q-type calcium channel in receptor binding assays” value is reported as “high selectivity”.
